# Source: US11395847B2, “Acylated GLP-1/GLP-2 dual agonists” (Zealand Pharma A/S, priority 2016, dated 2022)
# Where two headings read alike, the source gives them in different places. *1 amine or outer side, *2 acyl side, *3 side chain or, on linkers, in order; H or OH if unused. Where a SMILES comes first, the peptide text is derived from it. Side-chain parts run from the residue outwards. [ ]: non-standard residue; d: D form. The star is where a group is joined. C20 diacid = O=C(O)CCCCCCCCCCCCCCCCCCC(=O)*; γGlu = O=C(O)[C@H](CCC(=O)[*:2])N[*:1]; AEEA = NCCOCCOCC(=O)O; Aib = CC(C)(N)C(=O)O
# What was measured:
# [1] = Solubility assessment (turbidity absorbance at 325 nm); format: physicochemical
# Method: A stock solution of the test peptide (2 mg/ml; determined from the weighed amount of peptide) in demineralized water adjusted to pH 2.5 with HCl was prepared, and aliquots were diluted 1:1 in 100 mM acetate buffer (pH 4.0 and pH 5.0), 100 mM histidine buffer (pH 6.0 and pH 7.0) and 100 mM phosphate buffer (pH 6.0, pH 7.0 and pH 7.5), respectively, and loaded in a standard flat-bottom, non-sterile 96-well UV Microplate. The absorbance of samples (single samples, n=1) at 280 and 325 nm was measured in an absorbance-based plate reader, which was preheated to ambient temperature (typically 25° C.).
# human GLP-2 receptor = target: T1, human GLP-2 receptor (Homo sapiens, UniProt O95838, D470N); assay: GLP-2 receptor potency assay (cAMP ALPHASCREEN, HEK293 cells stably expressing GLP-2 R); format: cell-based; conditions: cAMP response, HEK293 cells expressing human GLP-2 R; read-out: EC50 GLP-2
# T1 construct: expressed in transfected cells
# T1 sequence (O95838 1-553 D470N): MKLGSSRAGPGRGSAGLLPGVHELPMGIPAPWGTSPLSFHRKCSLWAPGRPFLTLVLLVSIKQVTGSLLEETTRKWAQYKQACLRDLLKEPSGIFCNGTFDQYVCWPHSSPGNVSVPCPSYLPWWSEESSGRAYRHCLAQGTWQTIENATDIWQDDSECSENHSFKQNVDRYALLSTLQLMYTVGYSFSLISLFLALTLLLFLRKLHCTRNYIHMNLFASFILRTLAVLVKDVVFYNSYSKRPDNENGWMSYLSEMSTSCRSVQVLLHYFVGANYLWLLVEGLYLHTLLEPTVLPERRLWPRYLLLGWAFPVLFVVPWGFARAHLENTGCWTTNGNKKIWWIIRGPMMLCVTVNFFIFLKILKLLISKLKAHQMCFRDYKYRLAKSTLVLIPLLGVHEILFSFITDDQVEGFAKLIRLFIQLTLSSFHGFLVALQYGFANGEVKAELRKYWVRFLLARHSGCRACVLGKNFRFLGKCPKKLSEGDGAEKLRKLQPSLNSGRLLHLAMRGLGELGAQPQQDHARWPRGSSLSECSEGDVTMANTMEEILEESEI
# From the text: One useful in vitro assay for measuring GLP-1 and GLP-2 receptor activity is quantitation of cAMP, i.e. 3′-5′-cyclic adenosine monophosphate, which is a second messenger essential in many biological processes, and one of the most ubiquitous mechanisms for regulating cellular functions.
# For subcloning into a mammalian expression vector, primers for subcloning were obtained from DNA-Technology, Risskov, Denmark. The 5′ and 3′ primers used for the PCR reaction include terminal restriction sites for cloning and the context of the 5′ primer is modified to a Kozak consensus without changing the sequence of the product encoded by the ORF. […] The generated PCR product was purified using GFX PCR and Gel band purification kit, digested with restriction enzymes and cloned into the mammalian expression vector using Rapid DNA Ligation Kit. Ligation reaction was transformed to XL10 Gold Ultracompetent cells and colonies were picked for DNA production using ENDOFREE® Plasmid maxi kit. Subsequent sequence analysis was conducted by MWG Eurofins, Germany.
# HEK293 cells were transfected using the LIPOFECTAMINE® PLUS transfection method. The day before transfection, HEK293 cells were seeded in two T75 flasks at a density of 2×10^6 cells/T75 flask in cell culturing medium without antibiotics. On the day of transfection, cells were washed with 1× DPBS and medium was replaced with OPTI-MEM© to a volume of 5 mL/T75 flask before addition of LIPOFECTAMINE®-plasmid complexes were added gently and drop wise to the cells in T75 flasks and replaced with growth medium after 3 hours and again to growth medium supplemented with 500 μg/mL G418 after 24 hours. Following 4 weeks in G418 selection, clones were picked and tested in a functional GLP-2 receptor potency assay as described below.
# The cAMP ALPHASCREEN® assay from Perkin Elmer was used to quantitate the cAMP response to activation of the GLP1 and GLP2 receptor, respectively. […] Data from test compounds eliciting an increase in the intracellular level of cAMP were normalized relative to the positive and negative control (vehicle) to calculate the EC50 and maximal response from the concentration response curve.
# [2] = Chemical stability (RP-HPLC normalized purity after incubation at 40° C.); format: physicochemical; conditions: 14-day incubation, 0.2 mg/ml, normalized purity (area-%); for pH 7 normalized stability: pH 7, 40° C.
# Procedure, shortened: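 Peptide at 0.2 mg/ml final in water adjusted to pH 6, 7, 7.5 or 9, incubated at 40° C for 14 days. Purity measured as main-peak area-% by C18 RP-HPLC (acetonitrile/TFA/water gradient, UV 220 nm) and normalized to T=0 set at 100 for each pH.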
# [3] = 100 mM acetate buffer pH 4.0, ambient temperature, read-out: Solubility Acetate buffer pH 4
# [4] = 100 mM acetate buffer pH 5.0, ambient temperature, read-out: Solubility Acetate buffer pH 5
# [5] = 100 mM histidine buffer pH 6.0, ambient temperature, read-out: Solubility Histidine buffer pH 6
# [6] = 100 mM histidine buffer pH 7.0, ambient temperature, read-out: Solubility Histidine buffer pH 7
# [7] = 100 mM phosphate buffer pH 6.0, ambient temperature, read-out: Solubility Phosphate buffer pH 6
# [8] = 100 mM phosphate buffer pH 7.0, ambient temperature, read-out: Solubility Phosphate buffer pH 7
# [9] = 100 mM phosphate buffer pH 7.5, ambient temperature, read-out: Solubility Phosphate buffer pH 7.5
SMILES,"solubility [1, 3] [mg/mL]","solubility [1, 4] [mg/mL]","solubility [1, 5] [mg/mL]","solubility [1, 6] [mg/mL]","solubility [1, 7] [mg/mL]","solubility [1, 8] [mg/mL]","solubility [1, 9] [mg/mL]",EC50 (human GLP-2 receptor) [nM],pH 7 normalized stability [2],"pH 6 normalized stability ([2]; pH 6, 40° C.)"
"CC[C@H](C)[C@H](NC(=O)[C@H](Cc1ccccc1)NC(=O)[C@H](CC(=O)O)NC(=O)[C@H](CCCNC(=N)N)NC(=O)[C@H](C)NC(=O)[C@H](C)NC(=O)[C@H](CCC(N)=O)NC(=O)[C@H](CCCCNC(=O)CC[C@H](NC(=O)CCCCCCCCCCCCCCCCC(=O)O)C(=O)O)NC(=O)[C@H](CC(=O)O)NC(=O)[C@H](CC(C)C)NC(=O)[C@@H](NC(=O)[C@@H](NC(=O)[C@H](C)NC(=O)[C@H](CC(C)C)NC(=O)[C@H](CCC(=O)O)NC(=O)[C@H](CO)NC(=O)[C@@H](NC(=O)[C@H](Cc1ccccc1)NC(=O)[C@@H](NC(=O)CNC(=O)[C@H](CCC(=O)O)NC(=O)C(C)(C)NC(=O)[C@@H](N)Cc1c[nH]cn1)[C@@H](C)O)[C@@H](C)O)[C@@H](C)O)[C@@H](C)CC)C(=O)N[C@@H](C)C(=O)N[C@@H](Cc1c[nH]c2ccccc12)C(=O)N[C@@H](CC(C)C)C(=O)N[C@H](C(=O)N[C@@H](CCC(=O)O)C(=O)N[C@@H](Cc1c[nH]cn1)C(=O)N[C@@H](CCCCN)C(=O)N[C@H](C(=O)N[C@H](C(=O)N[C@@H](CC(=O)O)C(=O)O)[C@@H](C)O)[C@@H](C)CC)[C@@H](C)CC [Compound 25] (HELM PEPTIDE1{H.[Aib].E.G.T.F.T.S.E.L.A.T.I.L.D.K.Q.A.A.R.D.F.I.A.W.L.I.E.H.K.I.T.D}|PEPTIDE2{[O=C(O)CCCCCCCCCCCCCCCCC(=O)[*:2]].[gGlu]}$PEPTIDE1,PEPTIDE2,16:R3-2:R2$$$V2.0)",< 1,< 1,≥ 1,≥ 1,≥ 1,≥ 1,≥ 1,0.33,A (>90% normalised stability),–
CC[C@H](C)[C@H](NC(=O)[C@H](Cc1ccccc1)NC(=O)[C@H](CC(=O)O)NC(=O)[C@H](CCCNC(=N)N)NC(=O)[C@H](C)NC(=O)[C@H](C)NC(=O)[C@H](CCC(N)=O)NC(=O)[C@H](CCC(=O)O)NC(=O)[C@H](CC(=O)O)NC(=O)[C@H](CC(C)C)NC(=O)[C@@H](NC(=O)[C@@H](NC(=O)[C@H](C)NC(=O)[C@H](CCCCNC(=O)COCCOCCNC(=O)COCCOCCNC(=O)CC[C@H](NC(=O)CCCCCCCCCCCCCCCCCCC(=O)O)C(=O)O)NC(=O)[C@H](CCC(=O)O)NC(=O)[C@H](CO)NC(=O)[C@@H](NC(=O)[C@H](Cc1ccccc1)NC(=O)[C@H](CO)NC(=O)CNC(=O)[C@H](CCC(=O)O)NC(=O)C(C)(C)NC(=O)[C@@H](N)Cc1c[nH]cn1)[C@@H](C)O)[C@@H](C)O)[C@@H](C)CC)C(=O)N[C@@H](C)C(=O)N[C@@H](Cc1c[nH]c2ccccc12)C(=O)N[C@@H](CC(C)C)C(=O)N[C@H](C(=O)N[C@@H](CCC(=O)O)C(=O)N[C@@H](Cc1c[nH]cn1)C(=O)N[C@@H](CCCCN)C(=O)N[C@H](C(=O)N[C@H](C(=O)N[C@@H](CC(=O)O)C(=O)O)[C@@H](C)O)[C@@H](C)CC)[C@@H](C)CC [Compound 42] (H-H[Aib]EGSFTSEK([AEEA-AEEA-γGlu-C20 diacid])ATILDEQAARDFIAWLIEHKITD-OH),–,–,–,–,–,–,–,0.33,A (>90% normalised stability),–
"CC[C@H](C)[C@H](NC(=O)[C@H](Cc1ccccc1)NC(=O)[C@H](CC(=O)O)NC(=O)[C@H](CCCNC(=N)N)NC(=O)[C@H](C)NC(=O)[C@H](C)NC(=O)[C@H](CCC(N)=O)NC(=O)[C@H](CCCCNC(=O)CC[C@H](NC(=O)CCCCCCCCCCCCCCCCC(=O)O)C(=O)O)NC(=O)[C@H](CC(=O)O)NC(=O)[C@H](CC(C)C)NC(=O)[C@@H](NC(=O)[C@@H](NC(=O)[C@H](C)NC(=O)[C@H](CC(C)C)NC(=O)[C@H](CCC(=O)O)NC(=O)[C@H](CO)NC(=O)[C@H](CO)NC(=O)[C@H](Cc1ccccc1)NC(=O)[C@@H](NC(=O)CNC(=O)[C@H](CCC(=O)O)NC(=O)C(C)(C)NC(=O)[C@@H](N)Cc1c[nH]cn1)[C@@H](C)O)[C@@H](C)O)[C@@H](C)CC)C(=O)N[C@@H](C)C(=O)N[C@@H](Cc1c[nH]c2ccccc12)C(=O)N[C@@H](CC(C)C)C(=O)N[C@H](C(=O)N[C@@H](CCC(N)=O)C(=O)N[C@@H](Cc1c[nH]cn1)C(=O)N[C@@H](CCCCN)C(=O)N[C@H](C(=O)N[C@H](C(=O)N[C@@H](CC(=O)O)C(=O)O)[C@@H](C)O)[C@@H](C)CC)[C@@H](C)CC [Compound 17] (HELM PEPTIDE1{H.[Aib].E.G.T.F.S.S.E.L.A.T.I.L.D.K.Q.A.A.R.D.F.I.A.W.L.I.Q.H.K.I.T.D}|PEPTIDE2{[O=C(O)CCCCCCCCCCCCCCCCC(=O)[*:2]].[gGlu]}$PEPTIDE1,PEPTIDE2,16:R3-2:R2$$$V2.0)",< 1,< 1,≥ 1,≥ 1,≥ 1,≥ 1,≥ 1,0.33,–,–
"CC[C@H](C)[C@H](NC(=O)[C@H](Cc1ccccc1)NC(=O)[C@H](CC(=O)O)NC(=O)[C@H](CCCNC(=N)N)NC(=O)[C@H](C)NC(=O)[C@H](C)NC(=O)[C@H](CCC(N)=O)NC(=O)[C@H](CCCCNC(=O)CC[C@H](NC(=O)CCCCCCCCCCCCCCCCC(=O)O)C(=O)O)NC(=O)[C@H](CC(=O)O)NC(=O)[C@H](CC(C)C)NC(=O)[C@@H](NC(=O)[C@@H](NC(=O)[C@H](C)NC(=O)[C@H](CC(C)C)NC(=O)[C@H](CCC(=O)O)NC(=O)[C@H](CO)NC(=O)[C@@H](NC(=O)[C@H](Cc1ccccc1)NC(=O)[C@H](CO)NC(=O)CNC(=O)[C@H](CCC(=O)O)NC(=O)C(C)(C)NC(=O)[C@@H](N)Cc1c[nH]cn1)[C@@H](C)O)[C@@H](C)O)[C@@H](C)CC)C(=O)N[C@@H](C)C(=O)N[C@@H](Cc1c[nH]c2ccccc12)C(=O)N[C@@H](CC(C)C)C(=O)N[C@H](C(=O)N[C@@H](CCC(=O)O)C(=O)N[C@@H](Cc1c[nH]cn1)C(=O)N[C@@H](CCCCN)C(=O)N[C@H](C(=O)N[C@H](C(=O)N[C@@H](CC(=O)O)C(=O)O)[C@@H](C)O)[C@@H](C)CC)[C@@H](C)CC [Compound 24] (HELM PEPTIDE1{H.[Aib].E.G.S.F.T.S.E.L.A.T.I.L.D.K.Q.A.A.R.D.F.I.A.W.L.I.E.H.K.I.T.D}|PEPTIDE2{[O=C(O)CCCCCCCCCCCCCCCCC(=O)[*:2]].[gGlu]}$PEPTIDE1,PEPTIDE2,16:R3-2:R2$$$V2.0)",< 1,< 1,≥ 1,≥ 1,≥ 1,≥ 1,≥ 1,0.17,A (>90% normalised stability),B (>80% stability)
